Test results: US4014999A, “Halo-steroidal thioketals for treating inflammation” (Ortho Pharmaceutical Corporation, priority 1976, dated 1977)

Tested on: left hind paw inflammation in rats with adjuvant arthritis
Experiment: Therapeutic Treatment of Adjuvant Arthritis in Rats (left hind paw inflammation)
Assay type: in vivo, Carworth Wistar (Lewis) rats
Procedure: Carworth Wistar (Lewis) rats weighing approximately 200 grams are anesthetized with ether, weighed and their hind paws measured by means of a mercury displacement method. The left hind paw is injected intradermally with heat-killed Mycobacterium tuberculosis in white mineral oil. Measurements of body weight and paw volume are obtained on days 2, 5, 10, 15, 20 and 25. Therapeutic treatment is started on day 15.
Following the injection with Mycobacterium tuberculosis, a primary inflammation develops immediately in the injected paw. Secondary inflammation of the joints of the other legs and feet, nodules on the tail and red spots on the ears develop about day 10-15. The object of the test is to determine the anti-inflammatory effects of the drug treatments.
Groups of rats (five rats/group) are treated as follows: One group receives no Mycobacterium tuberculosis and is the negative control group. One group receives Mycobacterium tuberculosis but no anti-inflammatory drug and is the positive control group. Other groups receive Mycobacterium tuberculosis and either oral or topical test compounds or standard anti-inflammatory agents beginning on day 15 and are considered experimental groups. Experimental anti-inflammatory and standard anti-inflammatory compounds are administered either once every five days, i.e., after grading on days 15 and 20, or once/day on days 15-24.
In the topical studies a measured amount of drug is mixed into about 0.5 ml of SILASTIC* Medical Adhesive (or other appropriate vehicle) and applied to cover the left hind paw. Rats so treated are housed individually to eliminate the removal of the medication by another rat. The following, Tables 1 and 2 illustrate the anti-inflammatory potency and efficacy of the oral and topical treatments.

[1] = oral, once per day, 0.00375 mg/kg
[2] = oral, once per day, 0.00750 mg/kg
[3] = oral, once per day, 0.01500 mg/kg
[4] = oral, once per day, 0.03000 mg/kg
[5] = oral, once per day, 0.06250 mg/kg
[6] = oral, once per day, 0.12500 mg/kg

| SMILES | Percent Inhibition of Left Hind Paw Inflammation (oral, once every five days, 0.075 mg/kg/5 days) | Percent Inhibition of Left Hind Paw Inflammation (oral, once every five days, 0.150 mg/kg/5 days) | Percent Inhibition of Left Hind Paw Inflammation (oral, once every five days, 0.300 mg/kg/5 days) | Percent Inhibition of Left Hind Paw Inflammation (oral, once every five days, 0.625 mg/kg/5 days) | Percent Inhibition of Left Hind Paw Inflammation (oral, once every five days, 1.250 mg/kg/5 days) | Percent Inhibition of Left Hind Paw Inflammation (oral, once every five days, 2.500 mg/kg/5 days) | Percent Inhibition of Left Hind Paw Inflammation [1] | Percent Inhibition of Left Hind Paw Inflammation [2] | Percent Inhibition of Left Hind Paw Inflammation [3] | Percent Inhibition of Left Hind Paw Inflammation [4] | Percent Inhibition of Left Hind Paw Inflammation [5] | Percent Inhibition of Left Hind Paw Inflammation [6] | Percent Inhibition of Left Hind Paw Inflammation (oral, once per day, 0.25000 mg/kg) | Percent Inhibition of Left Hind Paw Inflammation (topical (in SILASTIC Medical Adhesive), once every five days, 0.300 mg/kg/5 days) | Percent Inhibition of Left Hind Paw Inflammation (topical (in SILASTIC Medical Adhesive), once every five days, 0.625 mg/kg/5 days) | Percent Inhibition of Left Hind Paw Inflammation (topical (in SILASTIC Medical Adhesive), once every five days, 1.250 mg/kg/5 days) | Percent Inhibition of Left Hind Paw Inflammation (topical (in SILASTIC Medical Adhesive), once every five days, 2.500 mg/kg/5 days) |
| --- | --- | --- | --- | --- | --- | --- | --- | --- | --- | --- | --- | --- | --- | --- | --- | --- | --- |
| CC1(C)O[C@@H]2C[C@H]3[C@@H]4C[C@H](F)C5=CC6(C=C[C@]5(C)[C@@]4(F)[C@@H](O)C[C@]3(C)[C@]2(C(=O)CO)O1)SCCS6 [Compound A, 6α,9-difluoropregna-1,4-diene-11β,16α,17,21-tetrol-3,20-dione-3-ethylenedithioketal-16,17-acetonide] | 14.7% | 15.3% | 18.1% | 29.0% | 35.0% | 44.3% | 5% | 9% | 43% | 34% | 60% | 83% | 95% | 31.1% | 52.6% | 57.5% | 64.5% |
| CC1(C)O[C@@H]2C[C@H]3[C@@H]4C[C@H](F)C5=CC(=O)C=C[C@]5(C)[C@@]4(F)[C@@H](O)C[C@]3(C)[C@]2(C(=O)CO)O1 [Compound B, fluocinolone acetonide, reference compound] |  |  |  |  |  |  | 19% | 15% | 32% | 66% | 76% | 64% |  |  |  |  |  |
